Results on 13 molecules are retold here after ChEMBL document CHEMBL4725325, “Synthesis and biological evaluation of parthenolide derivatives with reduced toxicity as potential inhibitors of the NLRP3 inflammasome” (Bioorg Med Chem Lett, 2020).

Molecules are shown by their SMILES. pIC50: −log10 of the molar value. Active and inactive are the calls of the source. The rule behind the calls is not given here.

Series [1] in a line: Cytotoxicity against human HEK-293T cells. It counts as cell-based. Particulars: read-out: TC50 (the source's name).
In series [2] the target is NACHT, LRR and PYD domains-containing protein 3 (Mus musculus, UniProt Q8R4B8). In words: Inhibition of NLRP3 inflammasome in mouse J774.A1 cells assessed as reduction in LPS-induced IL-1beta release. It counts as cell-based.
NACHT, LRR and PYD domains-containing protein 3 (Mus musculus, UniProt Q8R4B8), sequence (Q8R4B8 whole entry, the tested form may be a part): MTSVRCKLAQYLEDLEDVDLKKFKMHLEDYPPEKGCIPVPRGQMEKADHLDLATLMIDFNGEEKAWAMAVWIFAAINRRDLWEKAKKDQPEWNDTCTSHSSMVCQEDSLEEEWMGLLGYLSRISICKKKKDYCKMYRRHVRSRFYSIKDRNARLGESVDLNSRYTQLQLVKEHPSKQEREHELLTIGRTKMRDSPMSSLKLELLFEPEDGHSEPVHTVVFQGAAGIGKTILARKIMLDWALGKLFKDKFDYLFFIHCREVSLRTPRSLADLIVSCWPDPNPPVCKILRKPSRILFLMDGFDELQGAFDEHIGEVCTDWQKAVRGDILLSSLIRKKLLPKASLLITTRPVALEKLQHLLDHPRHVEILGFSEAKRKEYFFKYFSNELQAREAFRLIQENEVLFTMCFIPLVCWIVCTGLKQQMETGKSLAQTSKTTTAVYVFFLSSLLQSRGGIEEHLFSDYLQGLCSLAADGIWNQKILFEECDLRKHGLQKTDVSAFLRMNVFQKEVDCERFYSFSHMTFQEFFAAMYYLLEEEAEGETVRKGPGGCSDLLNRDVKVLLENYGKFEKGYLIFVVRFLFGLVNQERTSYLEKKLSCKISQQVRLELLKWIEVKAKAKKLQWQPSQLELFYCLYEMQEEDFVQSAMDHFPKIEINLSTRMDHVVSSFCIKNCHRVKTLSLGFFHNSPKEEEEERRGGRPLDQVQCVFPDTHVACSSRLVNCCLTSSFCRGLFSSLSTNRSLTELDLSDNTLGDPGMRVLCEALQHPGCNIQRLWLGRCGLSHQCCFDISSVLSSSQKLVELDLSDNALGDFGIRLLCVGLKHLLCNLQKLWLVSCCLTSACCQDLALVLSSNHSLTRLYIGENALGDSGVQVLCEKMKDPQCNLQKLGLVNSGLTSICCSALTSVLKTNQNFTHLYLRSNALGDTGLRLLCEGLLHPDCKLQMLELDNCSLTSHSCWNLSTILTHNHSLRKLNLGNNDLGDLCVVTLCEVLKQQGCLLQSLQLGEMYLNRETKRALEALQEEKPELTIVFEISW
Series [3] relates to Mus musculus. In words: In vivo inhibition of NLRP3 in mouse assessed as reduction in LPS-induced IL-1beta release in serum at 30 mg/kg, po. It counts as functional, organism-based.
Series [4] is described as follows: Therapeutic index, ratio of IC50 for cytotoxicity against mouse J774.A1 cells to IC50 for antiinflammatory activity in mouse J774.A1 cells. It counts as toxicity, cell-based.
Series [5] in a line: Cytotoxicity against mouse J774.A1 cells. It counts as cell-based. The following applies: read-out: TC50 (the source's name).
For series [6], the system named is Mus musculus. In words: In vivo inhibition of NLRP3 in mouse assessed as reduction in LPS-induced IL-1beta release in peritoneal fluid at 30 mg/kg, po. It counts as functional, organism-based.
Series [7] has as its target T1, NACHT, LRR and PYD domains-containing protein 3 (Homo sapiens, UniProt Q96P20). The experiment in a line: Inhibition of NLRP3 inflammasome in human primary glial cells assessed as reduction in LPS-induced IL-1beta release at 1 to 10 uM. It counts as cell-based. Particulars: dose microM 1-10.
For series [8], the target named is NACHT, LRR and PYD domains-containing protein 3 (Mus musculus) (UniProt Q8R4B8). The experiment in a line: Inhibition of NLRP3 inflammasome in mouse J774.A1 cells assessed as reduction in LPS-induced IL-1beta release at 1 to 10 uM. It counts as cell-based. Particulars: dose microM 1-10.
NACHT, LRR and PYD domains-containing protein 3 (Mus musculus), sequence (Q8R4B8 whole entry, the tested form may be a part): as above
Series [9] concerns the target T1, NACHT, LRR and PYD domains-containing protein 3. The experiment in a line: Inhibition of NLRP3 inflammasome in human primary glial cells assessed as reduction in LPS-induced IL-1beta release. It counts as cell-based.
The target in series [10] is NACHT, LRR and PYD domains-containing protein 3 (Mus musculus) (UniProt Q8R4B8). In words: Inhibition of NLRP3 inflammasome in mouse J774.A1 cells assessed as reduction in LPS-induced IL-1beta release at 10 uM in presence of PTL/MCL. It counts as cell-based.
In series [11] the target is T1, NACHT, LRR and PYD domains-containing protein 3. The experiment in a line: Inhibition of NLRP3 inflammasome in human primary glial cells assessed as reduction in LPS-induced IL-1beta release at 10 uM in presence of PTL/MCL. It counts as cell-based. Particulars: Primary neuron.
Series [12] has the same target. In words: Inhibition of NLRP3 inflammasome in human primary glial cells assessed as reduction in LPS-induced IL-1beta release at 10 uM. Particulars: Primary neuron. It counts as cell-based.
In series [13] the target is NACHT, LRR and PYD domains-containing protein 3 (Mus musculus) (UniProt Q8R4B8). In words: Inhibition of NLRP3 inflammasome in mouse J774.A1 cells assessed as reduction in LPS-induced IL-1beta release at 10 uM. It counts as cell-based.
Series [14] has as its target T1, NACHT, LRR and PYD domains-containing protein 3. The experiment in a line: Inhibition of NLRP3 inflammasome activation (unknown origin) assessed as reduction in proIL-1beta at 0.2 to 5 uM by Western blot analysis. Particulars: dose microM 0.2-5. (In general: In western blotting, separated proteins are transferred to a membrane and probed.)
Series [15] has the same target. In words: Inhibition of NLRP3 inflammasome activation (unknown origin) assessed as reduction in caspase 1 p20 level by Western blot analysis. It counts as tissue-based. Particulars: Primary neuron, dose microM 0.2-5.
Series [16] has the same target. In words: Inhibition of NLRP3 inflammasome activation (unknown origin) assessed as reduction in IL-1beta by Western blot analysis. The following applies: dose microM 0.2-5.
Series [17] shares this target. In words: Inhibition of NLRP3 inflammasome activation (unknown origin) assessed as reduction in procaspase1 at 0.2 to 5 uM by Western blot analysis. Particulars: dose microM 0.2-5.
For series [18] the target is unchanged. In words: Inhibition of NLRP3 inflammasome activation (unknown origin) assessed as reduction in ASC level at 0.2 to 5 uM by Western blot analysis. Particulars: dose microM 0.2-5.

T1 sequence (Q96P20 whole entry, the tested form may be a part): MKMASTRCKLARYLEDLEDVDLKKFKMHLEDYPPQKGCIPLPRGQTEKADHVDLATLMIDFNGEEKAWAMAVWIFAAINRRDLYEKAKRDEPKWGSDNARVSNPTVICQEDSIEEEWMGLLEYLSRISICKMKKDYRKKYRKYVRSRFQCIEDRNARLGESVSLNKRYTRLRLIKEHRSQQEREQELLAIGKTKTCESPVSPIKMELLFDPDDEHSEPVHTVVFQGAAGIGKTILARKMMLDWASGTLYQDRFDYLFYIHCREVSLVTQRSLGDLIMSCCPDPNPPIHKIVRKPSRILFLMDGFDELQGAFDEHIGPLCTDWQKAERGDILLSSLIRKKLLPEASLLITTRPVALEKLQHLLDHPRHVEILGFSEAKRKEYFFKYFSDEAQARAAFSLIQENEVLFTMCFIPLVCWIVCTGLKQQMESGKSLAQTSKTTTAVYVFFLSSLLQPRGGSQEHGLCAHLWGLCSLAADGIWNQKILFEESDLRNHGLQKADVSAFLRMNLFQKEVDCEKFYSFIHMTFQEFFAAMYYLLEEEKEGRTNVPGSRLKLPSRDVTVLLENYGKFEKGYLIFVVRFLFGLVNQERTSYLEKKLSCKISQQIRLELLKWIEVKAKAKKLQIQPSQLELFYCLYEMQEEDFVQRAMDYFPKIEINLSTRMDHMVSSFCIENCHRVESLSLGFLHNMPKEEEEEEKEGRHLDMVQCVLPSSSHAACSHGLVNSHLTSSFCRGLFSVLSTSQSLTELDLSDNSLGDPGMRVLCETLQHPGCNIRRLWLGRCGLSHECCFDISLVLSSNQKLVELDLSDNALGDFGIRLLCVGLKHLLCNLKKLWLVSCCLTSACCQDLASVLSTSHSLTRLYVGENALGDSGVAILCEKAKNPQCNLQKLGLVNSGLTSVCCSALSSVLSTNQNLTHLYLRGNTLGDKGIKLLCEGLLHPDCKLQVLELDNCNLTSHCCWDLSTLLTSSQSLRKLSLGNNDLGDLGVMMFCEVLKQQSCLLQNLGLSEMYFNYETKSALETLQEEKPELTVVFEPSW

The term pIC50 denotes the negative decadic logarithm of the IC50, by convention in mol/L. `C=C1C(=O)O[C@@H]2[C@H]3O[C@@]3(C)CC/C=C(\C)CC[C@@H]12`: the CC50 in [1] was 29.9 µM; in series [5], 14.3 µM. The negative logarithm of the IC50 (pIC50) in series [2] was 5.85; in series [9] it was 5.74. For the same molecule, the inhibition result in series [3] and in series [6] was “Active” each time. In addition, the selectivity ratio in series [4] came out at 10.2. The inhibition result in series [7] and in series [8] was “Dose-dependent effect” throughout.
As for `C=C1CCC[C@]2(C)CC[C@H]3C(=C)C(=O)O[C@@H]3[C@@H]12`, the inhibition entry in series [7] and in [8] was “Dose-dependent effect” in each case.
As for `CC1=C2CC[C@@](C)(O)[C@@H]2[C@H]2OC(=O)[C@@H](CN(C)CCCOc3no[n+]([O-])c3S(=O)(=O)c3ccccc3)[C@@H]2CC1`, the CC50 came out at 106 µM in [1] and 68.5 µM in series [5]. Further, the negative logarithm of the IC50 (pIC50) in series [2] is 6.31; in [9] it was 5.64. Besides, in series [4], the selectivity ratio came to 140.
Take `O=S(=O)(c1ccccc1)c1no[n+]([O-])c1S(=O)(=O)c1ccccc1`: the CC50 worked out at 22.4 µM in [1] and 11.4 µM in [5]. Besides, the pIC50 in [2] is 6.03; in series [9] it was 5.72. The selectivity ratio in series [4] turned out to be 12.2.
`CC1=C2CC[C@@](C)(O)[C@@H]2[C@H]2OC(=O)[C@@H](CN(C)CC(=O)Nc3nc4ccc(OC(F)(F)F)cc4s3)[C@@H]2CC1`: the inhibition result in series [10] and in [11] was “Active” each time.
As to `C=C1C(=O)O[C@H]2[C@H]1CCC(C)=C1CC[C@@](C)(O)[C@@H]12` [MICHELIOLIDE], the CC50 in [1] came out at 51.7 µM; in [5] it was 21.9 µM. Besides, the pIC50 in [2] is 5.64; in series [9] it was 5.23. In addition, the selectivity ratio in [4] was found to be 9.5. In addition, the inhibition result in series [7] and in series [8] was “Dose-dependent effect” each time.
In the case of `C/C1=C\CC[C@]2(C)O[C@@H]2[C@H]2OC(=O)[C@@H](CN(C)CCCOc3no[n+]([O-])c3S(=O)(=O)c3ccccc3)[C@@H]2CC1`, the CC50 in [1] is 166 µM; in series [5], 66.6 µM. Besides, the negative logarithm of the IC50 (pIC50) in series [2] was 6.40; in [9], 5.66. Moreover, the selectivity ratio in series [4] stood at 166.
On to `Nc1nc2ccc(OC(F)(F)F)cc2s1`, for which the inhibition entry in series [12] and in [13] was “inactive” throughout. The inhibition result in series [10] and in series [11] was “Active” throughout.
With `CC1=C2CC[C@@](C)(O)[C@@H]2[C@H]2OC(=O)[C@@H](CN(C)CCOc3no[n+]([O-])c3S(=O)(=O)c3ccccc3)[C@@H]2CC1`, the CC50 in series [1] turned out to be 56.5 µM; in series [5], 59.5 µM. For the same molecule, the results for the negative logarithm of the IC50 (pIC50) in [2] and in [9] were 6.30 and 5.77, respectively. The selectivity ratio in [4] was determined as 119.
For the molecule `C/C1=C\CC[C@]2(C)O[C@@H]2[C@H]2OC(=O)[C@@H](CN(C)CCOc3no[n+]([O-])c3S(=O)(=O)c3ccccc3)[C@@H]2CC1`, the inhibition entry in series [14], in [17] and in [18] was “inactive” throughout. For the same molecule, the inhibition result in [15] and in series [16] was “Dose-dependent effect” each time. Moreover, the CC50 is 69.8 µM in [1] and 24.1 µM in series [5]. Further, the pIC50 in [2] is 6.52; in [9] it was 6.00. For the same molecule, the inhibition entry in series [3] and in [6] was “Active” throughout. Moreover, in series [4], the selectivity ratio came out at 80.3.
With `C/C1=C\CC[C@]2(C)O[C@@H]2[C@H]2OC(=O)[C@@H](CN(C)CC(=O)Nc3nc4ccc(OC(F)(F)F)cc4s3)[C@@H]2CC1`, the inhibition result in series [10] and in [11] was “Active” in each case.
Regarding `C=C1C(=O)O[C@@H]2[C@H]3C(C)=CCC[C@]3(C)CC[C@@H]12`, the inhibition entry in [7] and in [8] was “Dose-dependent effect” each time.
For the molecule `C=C1C(=O)O[C@@H]2/C=C(\C)CC/C=C(\C)CC[C@@H]12`, the inhibition result in series [8] was “Dose-dependent effect”.
